# Experimental data published in patent US20170252433A1, “PSMA-RELATED THERAPIES” (Memorial Sloan Kettering Cancer Center, priority 2014, published 2017).
# Experiments:
# nitric oxide synthase = assay: Nitric oxide synthase activity (total nitrate levels); type: cell-based, human; details: 5 μM, 48 h
# Experimental: (§1) Gene expression array was performed after TRIzol-based RNA extraction on an U133A 2.0 gene array (Affymetrix, Santa Clara, Calif.). The output of the androgen receptor (AR) pathway was assessed by measuring the levels of prostate specific antigen (PSA). LNCaP cells that have a functional AR pathway were obtained from ATCC (Manassas, Va.) and grown to confluence. Then they were treated for 48 h with 2-PMPA (5 μM) for 48 h, followed by screening of the culture medium for secreted PSA with the DELFIA PSA assay (Perkin Elmer, Waltham, Mass.). The levels of nitric oxide attributed to nitric oxide synthase's activity and the concentration of total secreted prostaglandins were quantified with the corresponding kits purchased from Cayman Chemicals (Ann Arbor, Mich.). Alterations in energy production due to signaling changes were determined through quantification of the intracellular NAD+ and ATP lelels, using the NAD assay from Cayman Chemicals (Ann Arbor, Mich.) and the StayBrite ATP kit from Biovision (Milpitas, Calif.).
# Furthermore, it was examined whether PSMA inhibition affects the activity of nitric oxide synthase and the levels of prostaglandins, since both Akt and Ca+2 regulate these processes. […]
# LNCaP-wt cells [1] = assay: Human phospho-kinase array (kinome profiling); type: cell-based; details: 48 h, 5 μM, FIG. 4a
# Experimental: CAMKK2, AMPKα and AKT antibodies were purchased from Cell Signaling (Danvers, Mass.). Cells were grown to confluence and treated with 2-PMPA (5 μM, Tocris) for 48 h. The phosphorylation status of proteins of interest was determined with an isoelectric-focusing instrument (NanoPro1000, Protein Simple, Santa Clara, Calif.), where the samples were prepared and analyzed according to the supplier's guidelines. Determination of site-specific phosphorylation of key proteins was performed with a human phosphor-kinase array (ARY003, R&D Systems, Minneapolis, Minn.), according to the product's instructions.
# Considering that PSMA inhibition affected the phosphorylation of some key kinases, a human kinome-profiling array from R&D Systems was utilized to obtain a wider view of other kinases being regulated by this protein. LNCaP-wt cells were grown in the presence of a PSMA inhibitor (48 h, 5 μM) and PC3-PSMA cells were grown under puromycin-induced selection. Control cells included LNCaP-wt and PC3-wt cells grown for 48 h in complete RPMI media. The cells were lysed and processed according to the array's protocol, and the array was performed according to its supplier's guideline. Imaging of the array's membranes was performed after film exposure in the presence of a chemiluniescent substrate and HRP-conjugated detecting antibodies, processed in a dark room.
# LNCaP-wt cells [2] = assay: Androgen receptor pathway output: secreted PSA (DELFIA PSA assay); type: cell-based, human; details: 5 μM, 48 h
# Experimental: as §1
# Since PSMA regulates Akt phosphorylation, it was investigated whether inhibition of PSMA and subsequent downregulation of Akt activity affected the status of the androgen receptor (AR) pathway. […]
# LNCaP xenografts = assay: In vivo chemotherapy, LNCaP xenografts; design: species or system male athymic, nude mice; details: 0.4 mM, 100 μL retro-orbital injection daily from implantation
# Experimental: Male, athymic, nude mice (Harlan Laboratories, Indianapolis, Ind.) were implanted with LNCaP xenografts (3 million cells in 100 μL Matrigel) on each flank. Immediately post xengraft implantation, the mice were treated daily iv with 2-PMPA (0.4 mM, 100 μL retro-orbital injection). Tumor volume was assessed by measuring the tumor with microcalipers. Combination therapy was performed with male athymic, nude mice with LNCaP xenografts, which were treated daily post tumor detection. Chemotherapy was administered by iv (100 μL retro-orbital injection) with animals receiving either enzalutamide (0.15 mM), 2-PMPA (3 mM) or both compounds (0.15 mM enzalutamide and 3 mM 2-PMPA). Male athymic, nude mice with PC3-PSMA xenografts (3 million cells in 100 μL Matrigel) were treated with either vehicle (DMSO) or a combination of AZD8055 and XL184 (AZD8055 0.4 mM and XL184 8 μM 100 μL retro-orbital injection).
# Tumor growth was examined using daily treatment of male athymic, nude mice with LNCaP xenografts on their flanks Each animal's flanks were injected with 3,000,000 cells in 100 μL matrigel, and the animals were immediately treated with 2-PMPA (0.4 mM, 100 μL retro-orbital injection). Tumor volume was assessed by measuring the tumor with microcalipers. […] In a different study, male athymic, nude mice with LNCaP xenografts were treated daily post tumor detection, with either enzalutamide (0.15 mM, 100 μL retro-orbital injection), 2-PMPA (3 mM, 100 μL retro-orbital injection) or both compounds (0.15 mM enzalutamide and 3 mM 2-PMPA, 100 μL retro-orbital injection). […] (FIG. 9c-d).
# [3] = test system: PSMA-expressing (LNCaP-PSMA+ve) and PSMA-negative (LNCaP-PSMA-ve) cells; assay: Cell viability with ROS-generating drug Elesclomol (Alamar Blue); type: cell-based, human; details: 2-PMPA 250 nM, 48 h; Elesclomol 250 nM; FIG. 8 C and D
# Experimental: Cell viability of (A) PSMA-expressing (LNCaP-PSMA+ve) and (B) PSMA-negative cells (LNCaP-PSMA-ve where PSMA expression was knocked down with shRNA) was determined via the fluorescence-based Alamar Blue method (λex=565 nm and λem=585 nm). Cell viability was assessed 48 h after drug administration with either vehicle (DMSO) or the ROS-generating drug Elesclomol (250 nM, Selleck Chemicals). […] The cells were treated for 48 h, and cell viability was determined with the Alamar Blue method.
compound,measurement,setting,value
O=C(O)CCC(CP(=O)(O)O)C(=O)O (stereo not drawn) [2-PMPA],nitrate concentration,nitric oxide synthase; PC3-wt cells that do not express PSMA,did not affect nitrate concentration
same,nitric oxide synthase activity (nitrate levels),"nitric oxide synthase; PSMA-expressing cells, FIG. 5c-d",decreased nitric oxide synthase activity
same,"phosphorylation of many proteins including TOR, p27, and Src",LNCaP-wt cells [1],decreased
same,PSA mRNA levels,LNCaP-wt cells [2],did not affect PSA's mRNA levels
same,PSA levels in culturing medium,LNCaP-wt cells [2]; FIG. 5a,increased PSA levels
same,tumor size and growth,LNCaP xenografts,smaller tumors that grew slowly
same,tumor initiation,LNCaP xenografts; FIG. 9a,did not affect tumor initiation
same,animal survival,LNCaP xenografts; FIG. 9b,extended the animals survival
same,resistance to ROS-generating drug (cell viability),[3],abrogates drug resistance and renders the cells susceptible to cell death
